# Measured values published in patent US9732087B2, “Diamino-pyridine, pyrimidine, and pyridazine modulators of the histamine H4 receptor” (JANSSEN PHARMACEUTICA NV, priority 2008, dated 2017).
# pKi: −log10 of the molar value.
# Target: human H4 receptor (Homo sapiens (Human), UniProt Q9H3N8)
# Assay: Binding assay on recombinant human histamine H4 receptor ([3H]histamine competition, SK-N-MC cell membranes)
# Conditions: membranes harvested with 96 well Brandel system; [3H]histamine 10 nM; average of results; read-out: Brandel Ki
# Procedure, shortened: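 Membranes from SK-N-MC cells stably or transiently transfected with human H4 receptor, prepared by homogenization and 30,000 g centrifugation in Tris/EDTA. Bound [3H]histamine separated by rapid filtration on PEI-treated GF/C filters, washed with ice-cold Tris/EDTA, counted by scintillation. '>' values denote highest concentration tested.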
row,SMILES,pKi
1,"c1cc(N2CCNCC2)cc(NCC2CC2)n1 [Example 35, N-(Cyclopropylmethyl)-4-piperazin-1-ylpyridin-2-amine]",7.59
2,"c1cc(N2CCNCC2)nc(NC2CC3CCC2C3)n1 (stereo not shown) [Example 70, Bicyclo[2.2.1]hept-2-yl-(4-piperazin-1-yl-pyrimidin-2-yl)-amine]",6.62
3,"CC(C)Nc1nccc(N2CCN(C)CC2)n1 [Example 53, N-(1-Methylethyl)-4-(4-methylpiperazin-1-yl)pyrimidin-2-amine]",7.61
4,"CC(C)CNc1cc(N2CCN(C)CC2)cnn1 [Example 101, 5-(4-Methylpiperazin-1-yl)-N-(2-methylpropyl)pyridazin-3-amine]",< 5.00
5,"CC(C)Nc1nccc(N2CC(N)C2)n1 [Example 90, 4-(3-Aminoazetidin-1-yl)-N-(1-methylethyl)pyrimidin-2-amine]",7.16

# Same assay, conditions: membranes harvested with cell harvester; [3H]histamine 10 nM; average of results; read-out: Cell Harvester Ki
row,pKi,SMILES
1,7.14,"c1cc(N2CCNCC2)nc(NC2CC3CCC2C3)n1 (stereo not shown) [Example 70, Bicyclo[2.2.1]hept-2-yl-(4-piperazin-1-yl-pyrimidin-2-yl)-amine]"
2,5.83,"CC(C)(O)CNc1cc(N2CCNCC2)ccn1 [Example 290, 2-Methyl-1-[(4-piperazin-1-ylpyridin-2-yl)amino]propan-2-ol]"
3,6.09,"C[C@@H](Nc1nccc(N2CC[C@@H](N)C2)n1)c1ccccc1 [Example 175, 4-[(3R)-3-Aminopyrrolidin-1-yl]-N-[(1R)-1-phenylethyl]pyrimidin-2-amine]"
4,6.73,"CN1CCN(c2ccnc(NC34C[C@H]5C[C@@H](C3)C[C@@H](C4)C5)c2)CC1 [Example 219, Adamantan-1-yl-[4-(4-methyl-piperazin-1-yl)-pyridin-2-yl]-amine]"
5,5.84,"CC(C)(CO)CNc1nccc(N2CC(N)C2)n1 [Example 151, 3-{[4-(3-Aminoazetidin-1-yl)pyrimidin-2-yl]amino}-2,2-dimethylpropan-1-ol]"
6,8.42,"N[C@@H]1CCN(c2ccnc(NC3CCCC3)n2)C1 [Example 25, 4-[(3R)-3-Aminopyrrolidin-1-yl]-N-cyclopentylpyrimidin-2-amine]"
7,6.84,"CN[C@@H]1CCN(c2ccnc(NCc3ccc(C)cc3)n2)C1 [Example 170, 4-[(3R)-3-(Methylamino)pyrrolidin-1-yl]-N-(4-methylbenzyl)pyrimidin-2-amine]"
8,6.56,"CN1CCN(c2ccnc(NCC3CCCCC3)c2)CC1 [Example 212, N-(Cyclohexylmethyl)-4-(4-methylpiperazin-1-yl)pyridin-2-amine]"
9,6.56,"CC(C)(O)CNc1cc(N2CC[C@@H](N)C2)ccn1 [Example 279, 1-({4-[(3R)-3-Aminopyrrolidin-1-yl]pyridin-2-yl}amino)-2-methylpropan-2-ol]"
10,< 5.00,"CN[C@H]1CCN(c2cnnc(NCCOC)c2)C1 [Example 376, N-(2-Methoxyethyl)-5-[(3S)-3-(methylamino)pyrrolidin-1-yl]pyridazin-3-amine]"
11,7.74,"CNC1CN(c2ccnc(NCC(C)C)c2)C1 [Example 34, 4-[3-(Methylamino)azetidin-1-yl]-N-(2-methylpropyl)pyridin-2-amine]"
12,7.37,"CC(C)(C)CNc1nccc(N2CC(N)C2)n1 [Example 88, 4-(3-Aminoazetidin-1-yl)-N-(2,2-dimethylpropyl)pyrimidin-2-amine]"
13,5.69,"N[C@@H]1CCN(c2cnnc(NCc3ccccc3)c2)C1 [Example 340, 5-[(3R)-3-Aminopyrrolidin-1-yl]-N-benzylpyridazin-3-amine]"
14,6.89,"CC(C)(C)CNc1cc(N2CC[C@@H](N)C2)cnn1 [Example 371, 5-[(3R)-3-Aminopyrrolidin-1-yl]-N-(2,2-dimethylpropyl)pyridazin-3-amine]"
15,7.89,"CN[C@@H]1CCN(c2ccnc(NCc3ccccc3)c2)C1 [Example 11, N-Benzyl-4-[(3R)-3-(methylamino)pyrrolidin-1-yl]pyridin-2-amine]"
16,5.76,"CN[C@H]1CCN(c2cnnc(NCCCC(F)(F)F)c2)C1 [Example 389, 5-[(3S)-3-(Methylamino)pyrrolidin-1-yl]-N-(4,4,4-trifluorobutyl)pyridazin-3-amine]"
17,6.71,"CNC1CN(c2ccnc(NCC(C)(C)CO)n2)C1 [Example 136, 2,2-Dimethyl-3-({4-[3-(methylamino)azetidin-1-yl]pyrimidin-2-yl}amino)propan-1-ol]"
18,8.80,"CN[C@@H]1CCN(c2ccnc(NCC3CCCC3)n2)C1 [Example 121, N-(Cyclopentylmethyl)-4-[(3R)-3-(methylamino)pyrrolidin-1-yl]pyrimidin-2-amine]"
19,< 5.00,"N[C@@H]1CCN(c2cnnc(NCc3ccccn3)c2)C1 [Example 337, 5-[(3R)-3-Aminopyrrolidin-1-yl]-N-(pyridin-2-ylmethyl)pyridazin-3-amine]"

row,pKi,SMILES
1,< 5.00,"CN[C@H]1CCN(c2cnnc(NCCCO)c2)C1 [Example 403, 3-({5-[(3S)-3-(Methylamino)pyrrolidin-1-yl]pyridazin-3-yl}amino)propan-1-ol]"
2,6.16,"CN[C@@H]1CCN(c2cnnc(NC3CC3)c2)C1 [Example 377, N-Cyclopropyl-5-[(3R)-3-(methylamino)pyrrolidin-1-yl]pyridazin-3-amine]"
3,6.29,"N[C@@H]1CCN(c2cnnc(NC3CCCCC3)c2)C1 [Example 365, 5-[(3R)-3-Aminopyrrolidin-1-yl]-N-cyclohexylpyridazin-3-amine]"
4,6.98,"CC(C)Nc1nccc(N2CC(N)C2)n1 [Example 90, 4-(3-Aminoazetidin-1-yl)-N-(1-methylethyl)pyrimidin-2-amine]"
5,5.78,"CC(C)CNc1cc(N2CC(N)C2)cnn1 [Example 328, 5-(3-Aminoazetidin-1-yl)-N-(2-methylpropyl)pyridazin-3-amine]"
6,7.26,"CN[C@@H]1CCN(c2ccnc(NCC(C)(C)O)c2)C1 [Example 240, 2-Methyl-1-({4-[(3R)-3-(methylamino)pyrrolidin-1-yl]pyridin-2-yl}amino)propan-2-ol]"
7,6.86,"CNC1CN(c2ccnc(N[C@H](C)C3CCCCC3)n2)C1 [Example 113, N-[(1R)-1-Cyclohexylethyl]-4-[3-(methylamino)azetidin-1-yl]pyrimidin-2-amine]"
8,6.06,"CCCCNc1cc(N2CC[C@@H](N)C2)cnn1 [Example 367, 5-[(3R)-3-Aminopyrrolidin-1-yl]-N-butylpyridazin-3-amine]"
9,6.77,"C[C@@H](Nc1nccc(N2CC[C@@H](N)C2)n1)C1CCCCC1 [Example 103, 4-[(3R)-3-Aminopyrrolidin-1-yl]-N-[(1R)-1-cyclohexylethyl]pyrimidin-2-amine]"
10,7.50,"CN[C@@H]1CCN(c2ccnc(NCCOC)c2)C1 [Example 42, N-(2-Methoxyethyl)-4-[(3R)-3-(methylamino)pyrrolidin-1-yl]pyridin-2-amine]"
11,6.56,"c1ccc(Nc2cc(N3CCNCC3)ccn2)cc1 [Example 38, N-Phenyl-4-piperazin-1-ylpyridin-2-amine]"
12,8.77,"c1cc(N2CCCNCC2)cc(NC2CC3CCC2C3)n1 (stereo not shown) [Example 265, N-Bicyclo[2.2.1]hept-2-yl-4-(1,4-diazepan-1-yl)pyridin-2-amine]"
13,6.42,"C[C@H]1[C@@H](Nc2nccc(N3CCNCC3)n2)C[C@@H]2C[C@H]1C2(C)C (stereo in doubt) [Example 71, (4-Piperazin-1-yl-pyrimidin-2-yl)-(2,6,6-trimethyl-bicyclo[3.1.1]hept-3-yl)-amine]"
14,7.44,"CSCCNc1nccc(N2CCN(C)CC2)n1 [Example 164, 4-(4-Methylpiperazin-1-yl)-N-[2-(methylsulfanyl)ethyl]pyrimidin-2-amine]"
15,5.73,"CN(CCN)c1cnnc(NCC(C)(C)C)c1 [Example 300, N^5-(2-Aminoethyl)-N^3-(2,2-dimethylpropyl)-N^5-methylpyridazine-3,5-diamine]"
16,5.82,"N[C@H]1CCN(c2ccnc(NCc3ccccc3)c2)C1 [Example 267, 4-[(3S)-3-Aminopyrrolidin-1-yl]-N-benzylpyridin-2-amine]"
17,6.72,"CN1CCN(c2ccnc(N[C@H]3C[C@H]4CC[C@]3(C)C4(C)C)c2)CC1 [Example 252, 4-(4-Methylpiperazin-1-yl)-N-[(1R,2S,4R)-1,7,7-trimethylbicyclo[2.2.1]hept-2-yl]pyridin-2-amine]"
18,6.53,"CN[C@H]1CCN(c2cnnc(NCC(C)C)c2)C1 [Example 379, 5-[(3S)-3-(Methylamino)pyrrolidin-1-yl]-N-(2-methylpropyl)pyridazin-3-amine]"
19,8.77,"CN[C@@H]1CCN(c2ccnc(NCC3CCCCC3)c2)C1 [Example 211, N-(Cyclohexylmethyl)-4-[(3R)-3-(methylamino)pyrrolidin-1-yl]pyridin-2-amine]"

row,SMILES,pKi
1,"c1cc(N2CCNCC2)cc(NCC2CC2)n1 [Example 35, N-(Cyclopropylmethyl)-4-piperazin-1-ylpyridin-2-amine]",7.13
2,"c1cc(N2C[C@H]3CCN[C@H]3C2)cc(NC2CCCC2)n1 [Example 262, N-Cyclopentyl-4-[(3aR,6aR)-hexahydropyrrolo[3,4-b]pyrrol-5(1H)-yl]pyridin-2-amine]",7.66
3,"CC(C)Nc1nccc(N2CCN(C)CC2)n1 [Example 53, N-(1-Methylethyl)-4-(4-methylpiperazin-1-yl)pyrimidin-2-amine]",7.07
4,"CN1CCN(c2cnnc(NCC(C)(C)C)c2)CC1 [Example 404, 5-(4-methylpiperazin-1-yl)-N-neopentylpyridazin-3-amine dihydro chloride]",5.37
5,"c1cc(N2C[C@H]3CCN[C@H]3C2)cc(NCC2CCCC2)n1 [Example 261, N-(Cyclopentylmethyl)-4-[(3aR,6aR)-hexahydropyrrolo[3,4-b]pyrrol-5(1H)-yl]pyridin-2-amine]",5.45
6,"CC(C)CNc1cc(N2CCN(C)CC2)cnn1 [Example 101, 5-(4-Methylpiperazin-1-yl)-N-(2-methylpropyl)pyridazin-3-amine]",< 5.00
7,"c1cc(N2C[C@H]3CCN[C@H]3C2)nc(NC2CCCC2)n1 [Example 139, N-Cyclopentyl-4-[(3aR,6aR)-hexahydropyrrolo[3,4-b]pyrrol-5(1H)-yl]pyrimidin-2-amine]",8.10
8,"c1nnc(NCC2CCCC2)cc1N1C[C@H]2CCN[C@H]2C1 [Example 360, N-(Cyclopentylmethyl)-5-[(3aR,6aR)-hexahydropyrrolo[3,4-b]pyrrol-5(1H)-yl]pyridazin-3-amine]",5.93
9,"CN[C@@H]1CCN(c2ccnc(NC(C)C)n2)C1 [Example 78, Isopropyl-[4-(3R)-(3-methylamino-pyrrolidin-1-yl)-pyrimidin-2-yl]-amine]",8.22
